Measured values reported in patent US9345793B2, “Compounds for binding to the platelet specific glycoprotein IIB/IIIA and their use for imaging of thrombi” (PIRAMAL IMAGING SA, priority 2011, dated 2016).
Like-named read-outs stand apart in the source and are kept apart here.

Experiments:
human thrombi = assay: Ex vivo blood flow model: binding to human thrombi, incl. competition with cold compound; settings: ± SEM; for in vitro clot-to-blood ratio / Accumulation Thrombus: 3 minutes post-injection of 18F-labeled compound; for Accumulation Thrombus: without cold compound; for Thrombus competition: cold compound added with hot compound, final plasma concentration 2.8 μM, 3 minutes
Excerpt: The binding of compounds to thrombi was further investigated in an ex vivo blood flow model similar to that described in “Wakhloo, A. K. et al. Thrombus and stroke 2008, in vitro models 57-66” but modified with regard to thrombus development. Briefly, an open handmade tube-set consisting of tygon-tubes (Tygon R-1000, part N^O AAU00007: I.D. 3.2 mm, O.D. 6.4 mm, Saint Gobain Performance Plastics North America), intermediate tubes (Intrafix® Infusion set, B. Braun, Melsungen, Germany) an open reservoir (10 mL Combitip, Eppendorf) and a chamber made of a piece of polyethylene-Tube, ([…] Polyethylene Tubing, Clay Adams, PE160, length: 6.5 cm) containing a loop of a roughened thread (fishing line: Okuma UltraMax whitefish, diameter: 0.14 mm, length: 5 cm; sandpaper: CAMI Grit designation: 600, CP918a, VSM) was used for thrombus formation. The connection between the intermediate tube and the thrombus chamber was made by trimmed tips (epTIPS, 200 μL, Eppendorff, Hamburg/Germany). The Reservoir and the thrombus chamber were fixed by clamps and stands. A peristaltic-pump (Minipuls 3, Gilson, Middelton/USA) was used to pump the blood around thereby adjusting the flow in the middle of the thrombus chamber to 70-90 cm per second, which was monitored by ultrasound Doppler measurement (Vevo 770 High-Resolution In Vivo Micro-Imaging System, VisualSonics, TorontoOntario, Canada; Scanhead: RMV 704, 40 MHz). The volume of the entire tube-set was 7.5 or 15 mL.
For each experiment fresh blood was taken from a volunteer using 10 mL citrate-tubes (Sarstedt S-Monovette 02.1067.001, 10 mL, Citrate 3.13%) and immediately laid into the turning-device of an incubator at a temperature of 37° C. (Heraeus miniTherm CTT with integrated rotation- and turning device, turning speed: 19 rotations per minute, Heraeus Instruments GmbH, Hanau/Germany). As needed, two tubes were taken out of the turning-device and 15 mL were transferred to a 20 mL Syringe (Omnifix®, B. Braun, Melsungen/Germany) and gently mixed with 0.75 mL CaCl2-Solution before the peristaltic pump was started and the whole content of the syringe was transferred into the reservoir of the tube-set via a cell strainer (BD Falcon™ cell strain, 40 μm, BD, Franklin Lakes, N.J. USA). After 7 minutes 1 MBq or 0.5 MBq (15 mL or 7.5 mL) of the compound was added to the reservoir by means of a pipette, thereby mixing the content gently with the tip of the pipette. The blood was left circulating for another 3 minutes. Then, the pump was stopped, aliquots were taken from the blood and the thrombus together with the roughened thread was removed from the thrombus-chamber before both was weighted and measured in a gamma counter (Automatic Gamma Counter Wizard^2 3, Perkin Elmer). Then the thrombus together with the thread was incubated in Plasmin-solution (Plasmin from Human Plasma, Sigma Aldrich, stock-solution: 500 μg in 500 μL 150 μM Tris-buffer (pH 7.8), 20 μL stock-solution to 230 μL saline solution 0.9%) for 48 hours to separate the platelets from the thread and to determine the netto weight of the thrombus. Finally the activity of the compound in blood and thrombus as well as the ratio between both was determined (cpm/weight [mg]).
To verify the specificity of the compound, a competition experiment was conducted in which the cold compound was added to the reservoir together with the hot compound. The final plasma concentration of the cold compound was 2.8 μM.

[1] = Pharmacokinetics / biodistribution in mice; type: in vivo; settings: nude mice
Description: The biodistribution of the compound described in example 41 was determined in nude mice. Briefly, the mice received 185 KBq of the compound each. At different time points ([…], 3 mice per group) the animals were sacrificed and the organs of interest or aliquots thereof were removed, weighted and finally measured in a gamma counter (Automatic Gamma Counter Wizard^2 3, Perkin Elmer).

[2] = Plasma protein binding by equilibrium dialysis, monkey plasma; type: in vitro ADME; settings: plasma (10% in buffer), Cynomolgus, read-out: Fu (Mari)
Description: (§1) The determination of the plasma protein binding of compounds was performed by means of an equilibrium dialysis in a 96-well HT plate. Solutions of test compound (0.3 μM and 3 μM) were prepared in buffer (50 mM phosphate buffer) and 10% plasma. A 96 well HT dialysis plate (Teflon) was assembled so that each well was divided in two compartments by a semi-permeable cellulose membrane (regenerated Cellulose, MWCO 12-14K). The phosphate buffer solution (150 μL) was added to one side of the membrane and the plasma solution to the other side (150 μL). The compounds were added to the plasma solution side and were incubated at 37 degree. The unbound fraction of the compound could pass through the membrane and equilibrium between the two sides could be reached (6-8 h, 37° C.). Both solutions were analyzed for each compound (plasma-free and plasma-containing) by LC-MS. Both solutions for each compound were diluted with buffer or plasma to reach the same matrix (10% plasma) for analysis and were precipitated by the addition of methanol. The fraction unbound (Fu) was calculated as the quotient of the equilibrium concentrations of the compound in plasma-free and plasma-containing solution.

[3] = molecular target: human GPIIb/IIIa receptor (Homo sapiens (Human), UniProt P05106+P08514); assay: Affinity assay: displacement of tritiated reference compound from immobilized purified GPIIb/IIIa; type: binding
Description: Affinity assay: In the first step human GPIIb/IIIa purified from human platelets was immobilized on a 96-well solid plate. After 48 hours the plates were washed and the unspecific binding sites were blocked with Roti®-Block. 2. In the next step, the plates were simultaneously incubated with a tritium labeled known GPIIb/IIIa binder (^3H) mixed with increasing concentrations of the novel small molecule compounds (inhibitor, ^19F). The higher the affinity of the inhibitor, the lower the bound fraction of the tritiated known GPIIb/IIIa binder (^3H) was. The fraction of tritiated compound (^3H), which is not displaced by inhibitor, was measured in a microplate scintillation counter.
Purified human glycoprotein IIb/IIIa (20 mM Tris-HCl, 0.1 M NaCl, 0.1% Triton X-100, 1 mM CaCl2, 0.05% NaN3, 50% Glycerol, pH 7.4) was purchased from Enzyme Research Laboratories Inc. (South Bend, Ind.). The GPIIb/IIIa receptor was diluted in phosphate-buffered saline (Dulbecco's Phosphate Buffered Saline (D-PBS(+)) with calcium and magnesium, GIBCO®, Invitrogen) with 0.01% bovine serum albumin (albumin from bovine serum—lyophilized powder, ≧96%, Sigma).
The GPIIb/IIIa receptor was immobilized 48 hours at least (100 μL per well, 48 to maximum 96 hours) on a 96-well solid plate (Immuno Plate MaxiSorp™, Nunc, Roskilde, Denmark) at 277 K to 280 K and at a concentration of 0.1 μg per well to 1 μg per well. As negative control one row of the plate (n=8) was incubated just with 2% bovine serum albumin (200 μper well, albumin from bovine serum—lyophilized powder, […], Sigma, diluted in D-PBS(+)). After washing three times with the wash buffer (230 μL per well, Dulbecco's Phosphate Buffered Saline (D-PBS (−)) contains no calcium or magnesium, GIBCO®, Invitrogen) residual exposed plastic and unspecific binding sites were blocked by incubating the plate with a special blocking solution (200 μL per well, Roti®-Block, Carl Roth GmbH Co KG, Karlsruhe) containing 2% bovine serum albumin (Albumin from bovine serum—lyophilized powder, ≧96%, Sigma) 1 hour at room temperature.
After washing three times with the wash buffer 50 μL of tritiated reference compound (60 nM, ^3H-labeled compound) and 50 μL of novel compound (inhibitor, ^19F) were simultaneously added to each well and incubated for 1 hour at room temperature. Several concentrations of each novel inhibitor (0.1, 1, 2, 5, 10, 20 50, 100, 200, 500, 1000, 2000, 5000, 10000 and 20000 nM) were investigated. At each concentration of inhibitor a fourfold determination was performed.
The maximum value of tritiated reference compound was determined without addition of inhibitor (n=8). To exclude unspecific binding of ^3H-reference compound wells without glycoprotein receptors were used as negative controls (n=12, identically treated just without GP IIb/IIIa receptors).
After one hour the plate was washed three times with phosphate-buffered saline (200 μL per well, Dulbecco's Phosphate Buffered Saline (D-PBS(+)), GIBCO®, Invitrogen). Following 140 μL of liquid scintillation cocktail (MicroScint™ 40 aqueous, Perkin Elmer) was added to each well. After 15 min at room temperature the plates were measured at the microplate scintillation counter (TopCount NXT v2.13, Perkin Elmer, Packard Instrument Company).
In the first step human glycoprotein IIb/IIIa, which is purified from human platelets, was immobilized on a 96-well solid plate. After 48 hours at least the plates were washed and the unspecific binding sites were blocked with Roti®-Block. In the next step, the plates were simultaneously incubated with a tritium labeled reference compound and the novel small molecule compound (inhibitor). The higher the affinity of the inhibitor, the smaller is the bound fraction of reference compound. The fraction of tritiated reference compound, which is not displaced by inhibitor, was measured at a microplate scintillation counter.

[4] = Plasma protein binding by equilibrium dialysis, human plasma; type: in vitro ADME; settings: plasma (10% in buffer), Caucasian, read-out: Fu (Mari)
Description: as §1

Sequence of human GPIIb/IIIa receptor (P08514 32-887): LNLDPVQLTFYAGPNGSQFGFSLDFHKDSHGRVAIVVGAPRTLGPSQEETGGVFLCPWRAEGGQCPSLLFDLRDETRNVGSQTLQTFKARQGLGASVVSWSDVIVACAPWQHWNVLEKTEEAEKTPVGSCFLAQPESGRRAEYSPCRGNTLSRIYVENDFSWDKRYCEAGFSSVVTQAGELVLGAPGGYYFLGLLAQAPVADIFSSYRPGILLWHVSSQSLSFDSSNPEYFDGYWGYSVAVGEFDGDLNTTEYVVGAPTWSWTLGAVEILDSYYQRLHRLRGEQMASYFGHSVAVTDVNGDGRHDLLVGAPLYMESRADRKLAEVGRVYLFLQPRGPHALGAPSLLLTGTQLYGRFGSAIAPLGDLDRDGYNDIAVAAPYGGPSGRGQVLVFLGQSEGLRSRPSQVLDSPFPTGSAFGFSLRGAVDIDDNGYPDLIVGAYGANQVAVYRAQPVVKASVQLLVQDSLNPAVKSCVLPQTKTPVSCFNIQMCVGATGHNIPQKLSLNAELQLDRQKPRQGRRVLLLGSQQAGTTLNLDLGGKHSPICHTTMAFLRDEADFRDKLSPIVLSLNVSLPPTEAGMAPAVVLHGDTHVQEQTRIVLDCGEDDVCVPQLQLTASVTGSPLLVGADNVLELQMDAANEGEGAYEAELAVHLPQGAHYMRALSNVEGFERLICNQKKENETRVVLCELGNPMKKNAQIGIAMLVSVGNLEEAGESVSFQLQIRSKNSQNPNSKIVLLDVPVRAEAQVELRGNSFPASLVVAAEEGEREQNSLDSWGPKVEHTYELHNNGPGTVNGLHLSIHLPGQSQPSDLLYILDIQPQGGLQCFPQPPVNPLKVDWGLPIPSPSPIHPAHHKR
Sequence of human GPIIb/IIIa receptor (P08514 891-1039 partner): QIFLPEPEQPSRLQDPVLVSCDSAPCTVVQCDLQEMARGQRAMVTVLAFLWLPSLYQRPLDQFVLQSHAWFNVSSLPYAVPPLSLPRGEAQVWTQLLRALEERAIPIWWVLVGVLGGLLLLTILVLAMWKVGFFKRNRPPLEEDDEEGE
Sequence of human GPIIb/IIIa receptor (P05106 27-788): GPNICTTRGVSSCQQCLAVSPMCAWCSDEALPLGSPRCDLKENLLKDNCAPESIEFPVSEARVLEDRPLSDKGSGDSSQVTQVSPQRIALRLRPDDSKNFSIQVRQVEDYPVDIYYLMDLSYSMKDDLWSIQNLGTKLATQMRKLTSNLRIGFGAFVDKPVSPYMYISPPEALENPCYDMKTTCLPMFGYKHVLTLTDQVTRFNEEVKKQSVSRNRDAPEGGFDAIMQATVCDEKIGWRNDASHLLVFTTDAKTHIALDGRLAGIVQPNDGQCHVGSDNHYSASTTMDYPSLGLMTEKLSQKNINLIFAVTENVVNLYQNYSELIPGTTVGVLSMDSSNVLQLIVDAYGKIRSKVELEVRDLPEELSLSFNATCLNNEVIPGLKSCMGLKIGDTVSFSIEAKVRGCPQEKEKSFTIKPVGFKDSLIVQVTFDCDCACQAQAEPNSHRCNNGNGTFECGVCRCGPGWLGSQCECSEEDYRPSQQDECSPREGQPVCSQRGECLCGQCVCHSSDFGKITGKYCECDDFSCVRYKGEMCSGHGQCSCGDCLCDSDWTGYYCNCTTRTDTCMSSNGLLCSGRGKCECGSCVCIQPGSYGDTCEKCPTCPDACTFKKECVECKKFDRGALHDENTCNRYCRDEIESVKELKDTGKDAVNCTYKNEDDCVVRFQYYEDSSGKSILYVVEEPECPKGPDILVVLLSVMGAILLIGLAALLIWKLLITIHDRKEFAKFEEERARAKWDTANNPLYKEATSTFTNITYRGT

Compound: O=C(O)C[C@H](NC(=O)[C@@H]1CCCN(C(=O)CCC2CCNCC2)C1)c1ccc(OCC[18F])cc1 [Example 39, (3S)-3-[4-(2-[^18F]Fluoroethoxy)phenyl]-3-[({(3R)-1-[3-(piperidin-4-yl)propanoyl]piperidin-3-yl}carbonyl)amino]propanoic acid]
- in vitro clot-to-blood ratio (human thrombi): 34 ± 4 (n = 4)
- Accumulation Thrombus (human thrombi): 86 ± 9 (n = 6) 10^3 cpm/mg
- Thrombus competition (human thrombi): 12 ± 1 (n = 6) 10^3 cpm/mg

Compound: O=C(O)C[C@H](NC(=O)[C@@H]1CCCN(C(=O)CCC2CCNCC2)C1)c1cncc(-c2ccc(OCC[18F])cc2)c1 [Example 41, (3S)-3-{5-[4-(2-[^18F]Fluoroethoxy)phenyl]pyridin-3-yl}-3-[({(3R)-1-[3-(piperidin-4-yl)propanoyl]piperidin-3-yl}carbonyl)amino]propanoic acid]
- enhancement in the vessel-wall [1]: no enhancement in the vessel-wall
- excretion [1]: quickly excreted over the kidney and liver
- elimination from the blood ([1]; 185 KBq, 1-120 minutes p.i.): rapidly eliminated from the blood
- background in the rest of the body ([1]; after 15 minutes p.i.): almost no background in the whole rest of the body
- in vitro clot-to-blood ratio (human thrombi): 83 ± 14 (n = 6)
- Accumulation Thrombus (human thrombi): 44 ± 7 (n = 6) 10^3 cpm/mg
- Thrombus competition (human thrombi): 5 ± 1 (n = 5) 10^3 cpm/mg

Compound: O=C(O)C[C@H](NC(=O)[C@@H]1CCCN(C(=O)CCC2CCNCC2)C1)c1cncc(-c2ccc(OCCF)cc2)c1 [Example 7, (3S)-3-{5-[4-(2-Fluoroethoxy)phenyl]pyridin-3-yl}-3-[({(3R)-1-[3-(piperidin-4-yl)propanoyl]piperidin-3-yl}carbonyl)amino]propanoic acid]
- fraction unbound at 0.3 μM ([2]; 0.3 μM): 0.54
- fraction unbound at 3 μM ([2]; 3 μM): 0.58
- IC50 ([3]; 19F compounds vs 60 nM 3H-labeled reference compound, 1 hour at room temperature, read-out: IC50 human): 11 nM
- IC50 ([3]; values repeated beside the 18F-compound, read-out: IC50 human (corresponding 19F-compound, Table 2)): 11 nM
- fraction unbound at 0.3 μM ([4]; 0.3 μM): 0.5
- fraction unbound at 3 μM ([4]; 3 μM): 0.54

Compound: O=C(O)C[C@H](NC(=O)[C@@H]1CCCN(C(=O)CCC2CCNCC2)C1)c1cccc(OCC[18F])c1 [Example 38, (3S)-3-[3-(2-[^18F]Fluoroethoxy)phenyl]-3-[({(3R)-1-[3-(piperidin-4-yl)propanoyl]piperidin-3-yl}carbonyl)amino]propanoic acid]
- in vitro clot-to-blood ratio (human thrombi): 19 ± 1 (n = 9)
- Accumulation Thrombus (human thrombi): 41 ± 3 (n = 5) 10^3 cpm/mg
- Thrombus competition (human thrombi): 10 ± 1 (n = 5) 10^3 cpm/mg

Compound: O=C(O)C[C@H](NC(=O)[C@@H]1CCCN(C(=O)CCC2CCNCC2)C1)c1cncc(CCc2ccc(OCC[18F])cc2)c1 [Example 46, (3S)-3-(5-{2-[4-(2-[^18F]Fluoroethoxy)phenyl]ethyl}pyridin-3-yl)-3-[({(3R)-1-[3-(piperidin-4-yl)propanoyl]piperidin-3-yl}carbonyl)amino]propanoic acid]
- in vitro clot-to-blood ratio (human thrombi): 191 ± 30 (n = 4)
- Accumulation Thrombus (human thrombi): 285 ± 76 (n = 4) 10^3 cpm/mg
- Thrombus competition (human thrombi): 17 ± 1 (n = 4) 10^3 cpm/mg

Compound: N#Cc1cc(-c2cncc([C@H](CC(=O)O)NC(=O)[C@@H]3CCCN(C(=O)CCC4CCNCC4)C3)c2)ccc1[18F] [Example 42, (3S)-3-[5-(3-Cyano-4-[^18F]fluorophenyl)pyridin-3-yl]-3-[({(3R)-1-[3-(piperidin-4-yl)propanoyl]piperidin-3-yl}carbonyl)amino]propanoic acid]
- in vitro clot-to-blood ratio (human thrombi): 58 ± 10 (n = 6)
- Accumulation Thrombus (human thrombi): 39 ± 5 (n = 6) 10^3 cpm/mg
- Thrombus competition (human thrombi): 5 ± 1 (n = 6) 10^3 cpm/mg

Compound: O=C(O)C[C@H](NC(=O)[C@@H]1CCCN(C(=O)CCC2CCNCC2)C1)c1cncc(CCc2cccc(OCC[18F])c2)c1 [Example 47, (3S)-3-(5-{2-[3-(2-[^18F]Fluoroethoxy)phenyl]ethyl}pyridin-3-yl)-3-[({(3R)-1-[3-(piperidin-4-yl)propanoyl]piperidin-3-yl}carbonyl)amino]propanoic acid]
- in vitro clot-to-blood ratio (human thrombi): 178 ± 48 (n = 4)
- Accumulation Thrombus (human thrombi): 258 ± 59 (n = 4) 10^3 cpm/mg
- Thrombus competition (human thrombi): 14 ± 2 (n = 3) 10^3 cpm/mg
